One may read the IC50 as the concentration that inhibits the measured activity by half.

These results are taken from US20240239774A1, “SOLUBLE ADENYLYL CYCLASE (SAC) INHIBITORS AND USES THEREOF” (Cornell University, priority 2021, published 2024).

Series [1] concerns wild type C57B1/6 male mice. The series is described as follows: Imiquimod-induced type 17 skin inflammation, topical treatment. Conditions: for Il17a and Il17f expression in the skin (qRT-PCR) / skin inflammation (ear thickness): imiquimod 6 days, then continued imiquimod plus topical twice a day: LRE1 3%, Clobetasol 0.05%; for skin inflammation (ear thickness): Example 1 […]. Type of series: in vivo, mouse. The method, then:
Wild type C57B1/6 male mice 8-10 week old were purchased from Jackson labs. A 7 mm diameter circle was shaved and treated with Nair on the flank. Baseline ear thickness was measured. For 5 days, mice received daily treatment of 30 mg of 5% imiquimod cream (Taro) to each ear and to the 7 mm area on the flank. Ear thickness was recorded on days 3 and 5 to ensure peak inflammation had occurred. Mice were then randomized into three cohorts: vehicle, LRE1, and Clobetasol. […] Treatment with imiquimod was continued during this period as above. Ear thickness was recorded every day before the first dose of drug. On day 11, all mice were euthanized. A 7 mm punch biopsy was collected from the flank and both ears were removed. Skin was stored in RNAlater (Sigma) for qPCR or 10% formalin for immunohistochemistry.
For tissue, RNA was isolated according to specifications of the RNA easy plus universal mini kit (Qiagen). Tissue was homogenized using stainless steel beads in a bead beater. For frozen cell pellets, RNA was isolated according to specifications of the RNA easy plus mini kit (Qiagen). Samples were homogenized using Qiashredder columns (Qiagen). RNA quality control was performed using a nanodrop spectrophotometer. cDNA was made using the high-capacity rna-to-cdna kit (thermo fischer). The applied biosystems power SYBR green PCR master mix was used for qPCR. 40 cycles with annealing temperatures of 60 degrees celsius and a melting curve were performed using the QuantStudio 6 real-time PCR instrument (thermo fischer). Delta delta CT analysis was performed to determine relative transcription amongst samples normalized to GAPDH.
For orientation: Quantitative PCR measures a nucleic acid by following its amplification.

For series [2], the system named is purified recombinant human sAC protein. The series is classed as biochemical. The conditions noted are these: 1 mM ATP, 2 mM CaCl2, 4 mM MgCl2, 40 mM NaHCO3. The method, then: Assays for sAC activity using purified protein were performed in 100 μl reactions containing 4 mM MgCl2, 2 mM CaCl2, 1 mM ATP, 40 mM NaHCO3, 50 mM Tris pH 7.5, and 3 mM DTT. Each reaction contained ˜1,000,000 counts of α-^32P labeled ATP.
All in vitro adenylyl cyclase activity assays were performed via the “two-column” method measuring the conversion of [α-^32P] ATP into [^32P] cAMP, as previously described [References 81, 82]. Briefly, human sACt protein [Reference 21] was incubated in buffer containing 50 mM Tris-HCl, pH 7.5, 4 mM MgCl2, 2 mM CaCl2, 1 mM ATP, 3 mM DTT, 40 mM NaHCO3 in the presence of the indicated concentrations of different sAC inhibitors or vehicle (DMSO).

The conditions of series [3]: cited from earlier work.

With `C[C@H]1C[C@H]2[C@@H]3CCC4=CC(=O)C=C[C@]4(C)[C@@]3(F)[C@@H](O)C[C@]2(C)[C@@]1(O)C(=O)CCl` [Clobetasol], in series [1], the “Il17a and Il17f expression in the skin (qRT-PCR)” value was “significant reductions in Il17a and Il17f expression”; the “skin inflammation (ear thickness)” value is on record as “significant reduction in skin inflammation”. `Cn1cc(Cc2cccc(Cl)c2)c(-c2cc(Cl)nc(N)n2)n1` [Example 11]: the IC50 in series [2] is 75 nM.

For `Cn1cc(Cc2ccc(Cl)cc2)c(-c2cc(Cl)nc(N)n2)n1` [Example 13], the 50% inhibitory concentration (IC50) in series [2] was approximately 1000 nM.

Regarding `Cn1cc(Cc2ccccc2Cl)c(-c2cc(Cl)nc(N)n2)n1` [Example 15], the IC50 in series [2] was 60 nM. On the same count and under the same terms, as for `Nc1nc(Cl)cc(-c2nn(C(F)F)cc2Cc2ccccc2)n1` [Example 18], the figure is 110 nM; as for `COc1ccccc1Cc1cn(C)nc1-c1cc(Cl)nc(N)n1` [Example 28], 58 nM. Same read-out and setting: as for `CNC(=O)c1ccccc1Cc1cn(C)nc1-c1cc(Cl)nc(N)n1` [Example 52], the figure is 1200 nM. As to `Cn1cc(Cc2ccccc2OCCN2CCOCC2)c(-c2cc(Cl)nc(N)n2)n1` [Example 69, 4-chloro-6-[1-methyl-4-[[2-(2-morpholinoethoxy)phenyl]methyl]pyrazol-3-yl]pyrimidin-2-amine], the reduction in inflammation in series [1] (imiquimod for one week, then imiquimod plus compound, over 4 days, N=5) was found to be 50%.

In the case of `Nc1nc(Cl)cc(-c2nn(C(F)F)cc2Cc2ccccc2OCC(=O)N2CCOCC2)n1` [Example 95], the IC50 in series [2] turned out to be 15 nM. For `Nc1nc(Cl)cc(N(Cc2ccsc2)C2CC2)n1` [LRE1], in series [1] (applied at the same time as imiquimod, N=5), the “inflammation in the ears measured by ear calipers” value was “reduce the inflammation”. Besides, in series [1], the “Il17a and Il17f expression in the skin (qRT-PCR)” value was “significant reductions in Il17a and Il17f expression”; the “skin inflammation (ear thickness)” value was “significant reduction in skin inflammation”. In the case of `CCCc1nn(C)c2c(=O)[nH]c(-c3cc(S(=O)(=O)N4CCN(C)CC4)ccc3OCC)nc12` [sildenafil], the half-lives in series [3] was 4 to 5 h. As to `CCCc1nc(C)c2c(=O)[nH]c(-c3cc(S(=O)(=O)N4CCN(CC)CC4)ccc3OCC)nn12` [vardenafil], the half-lives in series [3] is 4 to 5 h.
